Calls of active or inactive are those of the source. The rule behind the calls is not given here.
test system: Pseudomonas aeruginosa; assay: Antimicrobial activity against Pseudomonas aeruginosa 27060deltaR1 harboring deletion of R1 plasmid in presence of human apo-transferrin by broth microdilution method; format: functional

Structure (SMILES)	MIC
CC(C)(O/N=C(\C(=O)N[C@@H]1C(=O)N2C(C(=O)[O-])=C(C[N+]3(CCNC(=O)c4cc(Cl)c(O)c(O)c4Cl)CCCC3)CS[C@H]12)c1csc(N)n1)C(=O)O	0.5 µg/mL
Cc1c(C(=O)NCC[N+]2(CC3=C(C(=O)[O-])N4C(=O)[C@@H](NC(=O)/C(=N\OC(C)(C)C(=O)O)c5csc(N)n5)[C@H]4SC3)CCCC2)ccc(O)c1O	2 µg/mL
CC(C)(O/N=C(\C(=O)N[C@@H]1C(=O)N2C(C(=O)[O-])=C(C[N+]3(CCNC(=O)c4ccc(O)c(O)c4)CCCC3)CS[C@H]12)c1csc(N)n1)C(=O)O	2 µg/mL

test system: Pseudomonas aeruginosa; assay: Antimicrobial activity against IMP-1 producing Pseudomonas aeruginosa SR27001 in presence of human apo-transferrin by broth microdilution method; format: functional

Structure (SMILES)	MIC
CC(C)(O/N=C(\C(=O)N[C@@H]1C(=O)N2C(C(=O)[O-])=C(C[N+]3(CCNC(=O)c4cc(Cl)c(O)c(O)c4Cl)CCCC3)CS[C@H]12)c1csc(N)n1)C(=O)O	0.5 µg/mL
Cc1c(C(=O)NCC[N+]2(CC3=C(C(=O)[O-])N4C(=O)[C@@H](NC(=O)/C(=N\OC(C)(C)C(=O)O)c5csc(N)n5)[C@H]4SC3)CCCC2)ccc(O)c1O	8 µg/mL
CC(C)(O/N=C(\C(=O)N[C@@H]1C(=O)N2C(C(=O)[O-])=C(C[N+]3(CCNC(=O)c4ccc(O)c(O)c4)CCCC3)CS[C@H]12)c1csc(N)n1)C(=O)O	2 µg/mL

test system: Acinetobacter baumannii; assay: Antimicrobial activity against OXA-23/OXA-58 producing Acinetobacter baumannii SR27323 in presence of human apo-transferrin by broth microdilution method; format: functional

Structure (SMILES)	MIC
CC(C)(O/N=C(\C(=O)N[C@@H]1C(=O)N2C(C(=O)[O-])=C(C[N+]3(CCNC(=O)c4cc(Cl)c(O)c(O)c4Cl)CCCC3)CS[C@H]12)c1csc(N)n1)C(=O)O	0.25 µg/mL
Cc1c(C(=O)NCC[N+]2(CC3=C(C(=O)[O-])N4C(=O)[C@@H](NC(=O)/C(=N\OC(C)(C)C(=O)O)c5csc(N)n5)[C@H]4SC3)CCCC2)ccc(O)c1O	8 µg/mL
CC(C)(O/N=C(\C(=O)N[C@@H]1C(=O)N2C(C(=O)[O-])=C(C[N+]3(CCNC(=O)c4ccc(O)c(O)c4)CCCC3)CS[C@H]12)c1csc(N)n1)C(=O)O	16 µg/mL

test system: Klebsiella pneumoniae; assay: Antimicrobial activity against KPC-2 producing Klebsiella pneumoniae ATCC BAA-1705 in presence of human apo-transferrin by broth microdilution method; format: functional

Structure (SMILES)	MIC
CC(C)(O/N=C(\C(=O)N[C@@H]1C(=O)N2C(C(=O)[O-])=C(C[N+]3(CCNC(=O)c4cc(Cl)c(O)c(O)c4Cl)CCCC3)CS[C@H]12)c1csc(N)n1)C(=O)O	0.031 µg/mL
Cc1c(C(=O)NCC[N+]2(CC3=C(C(=O)[O-])N4C(=O)[C@@H](NC(=O)/C(=N\OC(C)(C)C(=O)O)c5csc(N)n5)[C@H]4SC3)CCCC2)ccc(O)c1O	0.25 µg/mL
CC(C)(O/N=C(\C(=O)N[C@@H]1C(=O)N2C(C(=O)[O-])=C(C[N+]3(CCNC(=O)c4ccc(O)c(O)c4)CCCC3)CS[C@H]12)c1csc(N)n1)C(=O)O	0.5 µg/mL

test system: Pseudomonas aeruginosa; assay: Antimicrobial activity against AmpC overproducing Pseudomonas aeruginosa SR24-12 in presence of human apo-transferrin by broth microdilution method; format: functional

Structure (SMILES)	MIC
CC(C)(O/N=C(\C(=O)N[C@@H]1C(=O)N2C(C(=O)[O-])=C(C[N+]3(CCNC(=O)c4cc(Cl)c(O)c(O)c4Cl)CCCC3)CS[C@H]12)c1csc(N)n1)C(=O)O	0.25 µg/mL
Cc1c(C(=O)NCC[N+]2(CC3=C(C(=O)[O-])N4C(=O)[C@@H](NC(=O)/C(=N\OC(C)(C)C(=O)O)c5csc(N)n5)[C@H]4SC3)CCCC2)ccc(O)c1O	1 µg/mL
CC(C)(O/N=C(\C(=O)N[C@@H]1C(=O)N2C(C(=O)[O-])=C(C[N+]3(CCNC(=O)c4ccc(O)c(O)c4)CCCC3)CS[C@H]12)c1csc(N)n1)C(=O)O	1 µg/mL

test system: not listed separately; assay: Iron chelating activity in presence of cetyltrimethylammonium bromide at pH 5.5 by chromeazurol B dye based spectrophotometric method

Structure (SMILES)	Activity
CC(C)(O/N=C(\C(=O)N[C@@H]1C(=O)N2C(C(=O)[O-])=C(C[N+]3(CCNC(=O)c4cc(Cl)c(O)c(O)c4Cl)CCCC3)CS[C@H]12)c1csc(N)n1)C(=O)O	Active
Cc1c(C(=O)NCC[N+]2(CC3=C(C(=O)[O-])N4C(=O)[C@@H](NC(=O)/C(=N\OC(C)(C)C(=O)O)c5csc(N)n5)[C@H]4SC3)CCCC2)ccc(O)c1O	Active
CC(C)(O/N=C(\C(=O)N[C@@H]1C(=O)N2C(C(=O)[O-])=C(C[N+]3(CCNC(=O)c4ccc(O)c(O)c4)CCCC3)CS[C@H]12)c1csc(N)n1)C(=O)O	Active

test system: Pseudomonas aeruginosa; assay: Antimicrobial activity against Pseudomonas aeruginosa SR24 in presence of human apo-transferrin by broth microdilution method; format: functional

Structure (SMILES)	MIC
CC(C)(O/N=C(\C(=O)N[C@@H]1C(=O)N2C(C(=O)[O-])=C(C[N+]3(CCNC(=O)c4cc(Cl)c(O)c(O)c4Cl)CCCC3)CS[C@H]12)c1csc(N)n1)C(=O)O	0.125 µg/mL
Cc1c(C(=O)NCC[N+]2(CC3=C(C(=O)[O-])N4C(=O)[C@@H](NC(=O)/C(=N\OC(C)(C)C(=O)O)c5csc(N)n5)[C@H]4SC3)CCCC2)ccc(O)c1O	0.5 µg/mL
CC(C)(O/N=C(\C(=O)N[C@@H]1C(=O)N2C(C(=O)[O-])=C(C[N+]3(CCNC(=O)c4ccc(O)c(O)c4)CCCC3)CS[C@H]12)c1csc(N)n1)C(=O)O	0.125 µg/mL

test system: Pseudomonas aeruginosa; assay: Antimicrobial activity against VIM-2 producing Pseudomonas aeruginosa SBRKM-28 in presence of human apo-transferrin by broth microdilution method; format: functional

Structure (SMILES)	MIC
CC(C)(O/N=C(\C(=O)N[C@@H]1C(=O)N2C(C(=O)[O-])=C(C[N+]3(CCNC(=O)c4cc(Cl)c(O)c(O)c4Cl)CCCC3)CS[C@H]12)c1csc(N)n1)C(=O)O	0.063 µg/mL
CC(C)(O/N=C(\C(=O)N[C@@H]1C(=O)N2C(C(=O)[O-])=C(C[N+]3(CCNC(=O)c4ccc(O)c(O)c4)CCCC3)CS[C@H]12)c1csc(N)n1)C(=O)O	0.25 µg/mL

test system: Stenotrophomonas maltophilia; assay: Antimicrobial activity against L-1 producing Stenotrophomonas maltophilia SR21970 in presence of human apo-transferrin by broth microdilution method; format: functional

Structure (SMILES)	MIC
CC(C)(O/N=C(\C(=O)N[C@@H]1C(=O)N2C(C(=O)[O-])=C(C[N+]3(CCNC(=O)c4cc(Cl)c(O)c(O)c4Cl)CCCC3)CS[C@H]12)c1csc(N)n1)C(=O)O	0.125 µg/mL
Cc1c(C(=O)NCC[N+]2(CC3=C(C(=O)[O-])N4C(=O)[C@@H](NC(=O)/C(=N\OC(C)(C)C(=O)O)c5csc(N)n5)[C@H]4SC3)CCCC2)ccc(O)c1O	1 µg/mL
CC(C)(O/N=C(\C(=O)N[C@@H]1C(=O)N2C(C(=O)[O-])=C(C[N+]3(CCNC(=O)c4ccc(O)c(O)c4)CCCC3)CS[C@H]12)c1csc(N)n1)C(=O)O	2 µg/mL

test system: Escherichia coli; assay: Antimicrobial activity against SHV-4 producing Escherichia coli ATCC BAA-200 in presence of human apo-transferrin by broth microdilution method; format: functional

Structure (SMILES)	MIC
CC(C)(O/N=C(\C(=O)N[C@@H]1C(=O)N2C(C(=O)[O-])=C(C[N+]3(CCNC(=O)c4cc(Cl)c(O)c(O)c4Cl)CCCC3)CS[C@H]12)c1csc(N)n1)C(=O)O	0.5 µg/mL
Cc1c(C(=O)NCC[N+]2(CC3=C(C(=O)[O-])N4C(=O)[C@@H](NC(=O)/C(=N\OC(C)(C)C(=O)O)c5csc(N)n5)[C@H]4SC3)CCCC2)ccc(O)c1O	8 µg/mL
CC(C)(O/N=C(\C(=O)N[C@@H]1C(=O)N2C(C(=O)[O-])=C(C[N+]3(CCNC(=O)c4ccc(O)c(O)c4)CCCC3)CS[C@H]12)c1csc(N)n1)C(=O)O	2 µg/mL

test system: Pseudomonas aeruginosa; assay: Antimicrobial activity against IMP-1 producing Pseudomonas aeruginosa SR27060 in presence of human apo-transferrin by broth microdilution method; format: functional

Structure (SMILES)	MIC
CC(C)(O/N=C(\C(=O)N[C@@H]1C(=O)N2C(C(=O)[O-])=C(C[N+]3(CCNC(=O)c4cc(Cl)c(O)c(O)c4Cl)CCCC3)CS[C@H]12)c1csc(N)n1)C(=O)O	2 µg/mL
Cc1c(C(=O)NCC[N+]2(CC3=C(C(=O)[O-])N4C(=O)[C@@H](NC(=O)/C(=N\OC(C)(C)C(=O)O)c5csc(N)n5)[C@H]4SC3)CCCC2)ccc(O)c1O	8 µg/mL
CC(C)(O/N=C(\C(=O)N[C@@H]1C(=O)N2C(C(=O)[O-])=C(C[N+]3(CCNC(=O)c4ccc(O)c(O)c4)CCCC3)CS[C@H]12)c1csc(N)n1)C(=O)O	2 µg/mL
